Assay: Human HepG2 cell viability assay in 384 well format
Type: toxicity, cell-based
Design: dose 125 nL, time 70.5 hour; cytotoxicity at 70.5 h: concentration not given beside the values
Conditions: HepG2 cells, read-out: Inhibition

Compound	cytotoxicity at 70.5 h
Cc1ccc(C(=O)N2CCOCC2C(N)=O)c(F)c1 (centres undefined)	-8.13%
COCC(=O)N1CC(c2ccnc(Nc3ccc(C)cn3)n2)C1	-10.9%
Cc1ccc(-c2nc(CN3CCC(N4CCNC4=O)CC3)co2)cc1	-0.587%
Cc1cnn(CC2CN(CC(=O)Nc3nncs3)CCO2)c1 (centres undefined)	-1.53%
c1ccc(C2CCCN(c3ncnc4c3CCNC4)CC2)cc1 (centres undefined)	2.81%
COc1ccc(OCc2cc(C(=O)N3CCN[C@H](C)C3)n[nH]2)c(Cl)c1	-9.79%
COc1cccc(C(=O)N2CCN(C(=O)CCn3ccnc3)CC2)c1	-5.33%
N#CCCN(CC1CCCO1)C(=O)c1ccsc1 (centres undefined)	-4.29%
Cc1nc(C)c(CC(=O)Nc2ncc(C)s2)c(=O)[nH]1	-1.19%
NC(=O)CN1CCCC1c1cncc(Oc2ccc(Cl)cc2)n1 (centres undefined)	-4.42%
CC(C)CCNC(=O)c1ccc(-n2cnc3ccccc3c2=O)cc1	-27.3%
CN1CCN(c2cc(N3CCCC3CO)ncn2)Cc2ccccc21 (centres undefined)	17.8%
COc1cc(C(=O)N(C2CC2)C2CC(=O)NC2=O)ccc1C (centres undefined)	-0.747%
CCCN1CCN(C(=O)c2cnccn2)[C@H]2CS(=O)(=O)C[C@H]21	-0.654%
Cc1ccc(C(=O)Nc2cc(C(N)=O)ccc2CN(C)C)cc1Cl	-7.51%
CCc1nc(C)c(C(=O)N2C[C@@H](C(=O)O)[C@H](C3CC3)C2)s1	-4.51%
COc1cc(OC)cc(C2CC(=O)Nc3c2nc2n3CCCC2)c1 (centres undefined)	-3.11%
CCCn1cnnc1CNC1CCCC1	5.01%
Cc1cccc(CNC(=O)Nc2cc(C(F)(F)F)c[nH]c2=O)n1	-6.24%
CN(c1ccc(C(C)(C)C)cc1)S(=O)(=O)c1cc(C(=O)O)cs1	-10.9%
COCCn1cc(C(=O)N2CCCC2c2ccccc2C)ccc1=O (centres undefined)	-7.56%
Cc1nn(-c2ncnc3[nH]cnc23)c2c1C(CC(C)C)CC(=O)N2 (centres undefined)	-2.59%
COc1cccc(COCC(=O)NC(C)c2nnc3n2CCC3)c1 (centres undefined)	1.6%

Compound	cytotoxicity at 70.5 h
CNC(=O)CCN1CCCC1c1ccccc1Br (centres undefined)	28%
CCOc1ccnc(N2CCN(C(=O)c3ccoc3C)CC2)n1	-3.63%
CCN(CC)C1CCN(C(=O)NCc2cccc(-n3cccn3)c2)C1 (centres undefined)	-8.43%
CC(C)n1ccnc1C1CCN(C(=O)c2cc[nH]n2)CC1	-10.9%
Cc1ccccc1-c1cncc(C2CCN(Cc3ccccn3)CC2)n1	-3.39%
O=C(CNC(=O)Nc1cccc(-c2nccs2)c1)NCCO	-2.39%
COc1cccc(OC)c1-c1c[nH]c(C)n1	-19.9%
Cc1cccc(S(=O)(=O)NCC(C)(C)CC(C)O)c1C#N (centres undefined)	-6.31%
CNC(=O)c1ccc(CN(C(=O)c2scnc2C)C2CC2)cc1	29.9%
COc1ccccc1CN1CCCC(Cc2nccnc2N)C1 (centres undefined)	-8.24%
CC(=O)NCCC(=O)NCC1(c2c(F)cccc2F)CCCC1	-3.9%
Cc1cc(N2CCCC(c3nccnc3N(C)C)C2)ncn1 (centres undefined)	-2.83%
CCC(C)(NCC(=O)NC(=O)NC)c1nc(C)cs1 (centres undefined)	-4.2%
CC(C)(C)c1nnc(CSc2ccccn2)o1	-6.49%
CCC(CC)NC(=O)c1ccc2c(c1)C(c1nc[nH]n1)CN2S(C)(=O)=O (centres undefined)	-7.51%
Cc1nc(C2(NC(=O)NCc3cc(C#N)ccc3F)CCCC2)no1	-10.1%
NC(=O)NC(CC(=O)N1CCc2sccc2C1)c1ccccc1F (centres undefined)	-17.5%
c1cc(CNCc2cccc3c2OCCO3)cc(Cn2cncn2)c1	-10.5%
CSCCC(NC(=O)c1ccc2ccccc2n1)C(=O)NC1CC1 (centres undefined)	-8.01%
Cc1nc(NS(=O)(=O)c2cc(Br)ccc2C)no1	-11.8%
CC(C(=O)NC1CC1)S(=O)(=O)Cc1csc(-c2cccs2)n1 (centres undefined)	11%
Cc1ncc(CN(C)C(=O)Nc2cccc(CN3CCOC3=O)c2)s1	-3.49%
Cc1cccc(CS(=O)(=O)NCC(O)Cc2ccccc2)c1 (centres undefined)	0.192%

Compound	cytotoxicity at 70.5 h
CC(C)c1n[nH]c(C2CN(C(=O)c3cc(C4CC4)on3)CCO2)n1 (centres undefined)	-11.3%
CCOc1cc(CNC(C)c2ccc(F)cc2)ccn1 (centres undefined)	26.8%
CS(=O)(=O)NCc1cncc2c1CCN(CC1CCOC1)C2 (centres undefined)	2.49%
Cc1cc(C[C@@H]2COC[C@@H]2NC(=O)CN2CCOC2=O)on1	-7.96%
Cn1ccc(C(=O)N2C[C@@H]3CCN(c4cccnc4)C[C@@H]3C2)n1	-4.89%
O=C(NCCO)C1(CC2CC(c3ccc(F)cc3)=NO2)CCOCC1 (centres undefined)	14.1%
CC(=O)N1CCCC(Cc2cncc(Br)c2)C1 (centres undefined)	-1.98%
Cc1ccc2cc(C(=O)N3CCS(=O)(=O)CC3)[nH]c2c1	-12.3%
Cc1cccc(C(=O)N2C[C@H](NS(C)(=O)=O)[C@@H]3OCCC[C@@H]32)n1	-10.2%
CN(CCCC1CCCO1)C(=O)c1cccc(C#N)c1 (centres undefined)	-5.92%
COc1nn(C)c2c1CCCN(C(=O)c1ccc[nH]1)C2	-99.5%
O=C(NCCCn1ccnc1)C1COCC(=O)N1Cc1ccccc1 (centres undefined)	-16%
CCN(C)CC1CCN(C(=O)Nc2ccc(-c3cc[nH]n3)cc2)C1 (centres undefined)	11.5%
O=C(CCCc1ccccc1)Nc1cnc(N2CCOCC2)nc1	2.35%
Cc1cc(NC(=O)NCc2ccccc2OC(F)F)n(C)n1	-5.54%
CN1CCN(c2ncccn2)CC(C(=O)N(C)C)C1 (centres undefined)	-5.5%
O=C(NC1CCC1)C1=NOC2(CCN(Cc3ccc(F)cc3)C2)C1 (centres undefined)	14.1%
Cc1ccc(NC(=O)CS(=O)(=O)NC2CCC(C)CC2)nc1 (centres undefined)	-2.47%
O=C(c1ccoc1)N1CCC(NCc2cccnc2)CC1	4.06%
CC(C)n1cc(C(=O)NC2CN3CCC2CC3)c2ccccc21 (centres undefined)	-20.2%
CN(C)C(=O)CC1CC2(CCN(Cc3ccoc3)CC2)c2ccccc21 (centres undefined)	-2.19%
Cc1ccsc1C(=O)NC(C)c1ccc2c(c1)CCC(=O)N2 (centres undefined)	-1.83%
CCOc1c(Br)cc(/C=C/c2ncc(C(=O)O)s2)cc1OC	-11.1%

Compound	cytotoxicity at 70.5 h
CC(C)C(=O)NCc1cc(Br)ccc1F	-9.54%
Cn1cc(CN2CCc3c(c(COCC#N)nn3C)C2)cn1	-13.6%
CC(C)N1[C@H](Cn2cccn2)C[C@@H]2CN(Cc3ccoc3)CC[C@@H]21	-13.4%
CC(=O)N1CCC2(CC1)CN(C(=O)C1CC1)c1ccc(F)cc12	-0.352%
CN1CC[C@H](c2ccccc2)[C@@H]2[C@H]1CCCCN2C(=O)c1cnccn1	-8.44%
CC(=O)N1CCC(c2nc(Cc3ccccc3)no2)C1 (centres undefined)	-3.88%
CCn1cnnc1CNC(=O)N1CCOCC1	-13.2%
CN(Cc1n[nH]c2c1CCC2)C(=O)CCc1cc2n(n1)CCCNC2	-12.8%
Cc1noc(C)c1CCCNC(=O)C1CCN(C(=O)C2CCC2)CC1	5.79%
Cc1ccc(OCC(=O)Nc2ncccc2OC(F)F)cc1	-1.62%
Cc1nc(N(C)C)ncc1C(=O)NCCc1csc(-c2ccncc2)n1	-12.4%
CC(=O)N1CCN(Cc2ccc(C(F)(F)F)c(F)c2)CC(O)C1 (centres undefined)	0.294%
Cc1ccc(NC(=O)CC2NC(N3CCc4ccccc43)=NC2=O)cc1 (centres undefined)	-7.26%
Cc1cccc(C(C(=O)NC(C)(C)CN2CCOCC2)N(C)C)c1 (centres undefined)	25.2%
Cc1nc(CN2CCC3(C2)CN(Cc2ccco2)C3)cs1	-3.68%
Cc1ccc(C(=O)N2C[C@@H]3CC[C@H](C2)N(CC2CCC2)C3)s1	7.49%
COc1ccc(CCC(C)Nc2cccc(SC)c2)cc1 (centres undefined)	23.6%
O=C(CSc1nc2c(cnn2CCO)c(=O)[nH]1)N1CCCCCC1	13.2%
Cc1cc(F)c(S(=O)(=O)Nc2ccn(CCCC#N)n2)cc1F	-16%
CCn1c(Cn2cncn2)nnc1C1CCN(C[C@H]2[C@@H]3CNC[C@@H]32)CC1	-20.4%
Cc1noc(C)c1CCC(=O)N1CCCN(Cc2cscn2)CC1	-2.08%
Cc1nc(C)n(CC2CN(Cc3nc4ccccc4s3)CCO2)n1 (centres undefined)	18.9%
Cc1ccoc1-c1nnc(CNCCn2cccn2)o1	31.8%

Compound	cytotoxicity at 70.5 h
COc1cccc([C@@H]2CCN(Cc3c[nH]c(C)n3)C[C@H]2O)c1	17.7%
O=C(c1cnccn1)N1CCc2onc(Cn3cccn3)c2C1	-6.72%
COc1ccccc1CC(C)N(C)CCS(C)(=O)=O (centres undefined)	-14.1%
COCCCn1cnnc1CNC(=O)c1[nH]c2c(C)cc(C)cc2c1C	-6.04%
Cc1ccc(-c2nc(C(=O)N3CCN(C(=O)N(C)C)CC3)cs2)c(C)c1	-9.21%
CC(C)c1nnc2n1CC(CNCc1nnc(C(C)(C)C)o1)CC2 (centres undefined)	9.48%
O=C(COc1cccc(F)c1)N1C[C@H](CO)C[C@H](CN2CCCC2)C1	6.4%
O=C(NCC1CC1)c1nnc2ccc(Cl)cc2n1	-13.3%
O=C1N(c2cncnc2)CCC12CCCN(Cc1ccccn1)C2 (centres undefined)	-9.94%
CC(=O)N1CCN(C(=O)NC(C)C)CC2(CC(=O)N(C)C2)C1 (centres undefined)	-13.5%
Cc1ccnc(NC(=O)CCc2cnn(C)c2C)c1	-4.47%
CN(C)CC1CN(Cc2cccc(C#N)c2)Cc2nccn2C1 (centres undefined)	-6.48%
CC(C)(O)CCc1cccc(C(=O)N[C@@H](CO)C(N)=O)c1	3.89%
COCCN1C(=O)CCC12CCCN(Cc1nccs1)CC2 (centres undefined)	-6.77%
O=C(NC1CCN(C2CC2)CC1)NC1CCOc2ccc(Br)cc21 (centres undefined)	5.74%
NC(=O)c1cn2cc(-c3ccccc3Cl)n(CC3CC3)c(=O)c2n1	-9.1%
Cc1cc(S(=O)(=O)Nc2cccc(I)c2)sc1C(=O)O	13.9%
Cc1ccc(N2CCN(C)c3ncccc3C2)nn1	-2.98%
COc1ccc2nnc(CCC(=O)Nc3nc4c(s3)CCCC4)n2n1	-11.9%
c1cnc2nc(N3CCc4c(ncn4C4CC4)C3)ccc2n1	-6.09%
Cc1nccn1-c1cccc(N2CCC(OCC3CCCCO3)CC2)n1 (centres undefined)	-11.6%
Cn1ccnc1CN1CCN(CC(O)c2ccccc2)CC1 (centres undefined)	-12.2%
